{"source": "ChEMBL document CHEMBL4261505", "about": "“Imidazoles as potential anticancer agents” (Medchemcomm, 2017)", "key": {"[1]": {"test": "Antiproliferative activity against human WM3629 cells", "assay_type": "functional"}, "HeLa [2]": {"tested_on": "HeLa", "test": "Antiproliferative activity against human HeLa cells after 72 hrs by MTT assay", "assay_type": "functional, cell-based"}, "LS180": {"tested_on": "LS180", "test": "Antiproliferative activity against human LS180 cells after 72 hrs by MTT assay", "assay_type": "functional, cell-based", "conditions": "LS180, 72 h"}, "Jurkat": {"tested_on": "Jurkat", "test": "Antiproliferative activity against human Jurkat cells after 72 hrs by MTT assay", "assay_type": "functional, cell-based"}, "MCF7 [3]": {"tested_on": "MCF7", "test": "Antiproliferative activity against human MCF7 cells after 72 hrs by MTT assay", "assay_type": "functional, cell-based", "conditions": "MCF7, 72 h"}, "P388 [4]": {"tested_on": "P388", "test": "Antitumor activity against mouse P388 cells implanted in DBA/2J mouse assessed as increase in mouse life span at 5 mg/kg, iv relative to control", "assay_type": "functional"}, "MCF7 [5]": {"tested_on": "MCF7", "test": "Antiproliferative activity against human MCF7 cells", "assay_type": "functional, cell-based"}, "HCT-116": {"tested_on": "HCT-116", "test": "Antiproliferative activity against human HCT116 cells", "assay_type": "functional, cell-based"}, "Cytochrome P450 26A1": {"target": "T1, Cytochrome P450 26A1 (Homo sapiens, UniProt O43174)", "T1 sequence (O43174 whole entry)": "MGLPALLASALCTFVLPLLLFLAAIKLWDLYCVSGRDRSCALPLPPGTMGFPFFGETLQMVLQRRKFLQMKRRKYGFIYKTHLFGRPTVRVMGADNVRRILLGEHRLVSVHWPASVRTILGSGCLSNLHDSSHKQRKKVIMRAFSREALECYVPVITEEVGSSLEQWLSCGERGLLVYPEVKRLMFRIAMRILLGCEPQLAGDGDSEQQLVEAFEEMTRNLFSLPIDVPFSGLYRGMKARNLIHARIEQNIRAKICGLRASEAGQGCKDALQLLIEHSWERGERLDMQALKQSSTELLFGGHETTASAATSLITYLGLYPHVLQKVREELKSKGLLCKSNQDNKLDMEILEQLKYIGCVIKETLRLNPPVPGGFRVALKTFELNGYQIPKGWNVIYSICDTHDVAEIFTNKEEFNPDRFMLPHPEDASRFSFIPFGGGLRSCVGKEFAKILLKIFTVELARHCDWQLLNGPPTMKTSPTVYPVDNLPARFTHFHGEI", "test": "Inhibition of CYP26A1 (unknown origin)"}, "A549": {"tested_on": "A549", "test": "Antiproliferative activity against human A549 cells", "assay_type": "functional, cell-based"}, "A-431": {"tested_on": "A-431", "test": "Antitumor activity against human A431 cells xenografted in athymic mouse assessed as tumor growth inhibition at 25 mg/kg relative to control", "assay_type": "functional", "conditions": "read-out: TGI"}, "NUGC-3": {"tested_on": "NUGC-3", "test": "Antiproliferative activity against human NUGC3 cells after 72 hrs by MTT assay", "assay_type": "functional, cell-based", "conditions": "NUGC-3, 72 h"}, "P388 [6]": {"tested_on": "P388", "test": "Antitumor activity against mouse P388 cells implanted in DBA/2J mouse assessed as increase in mouse life span at 200 mg/kg/day, po for 4 consecutive days relative to control", "assay_type": "functional"}, "HeLa [7]": {"tested_on": "HeLa", "test": "Antiproliferative activity against human HeLa cells", "assay_type": "functional, cell-based"}}}
{"smiles": "C[C@H](O)CNc1nccc(-n2ccnc2-c2cccc(NC(=O)c3ccc(Cl)c(C(F)(F)F)c3)c2)n1", "values": [{"measurement": "GI50", "setting": "[1]", "result": 620, "unit": "nM"}]}
{"smiles": "CNC(=O)c1cc(Oc2ccc(NC(=O)Nc3ccc(Cl)c(C(F)(F)F)c3)cc2)ccn1", "note": "[SORAFENIB]", "values": [{"measurement": "GI50", "setting": "[1]", "result": 780, "unit": "nM"}]}
{"smiles": "O=C1CCCc2nc3c(c(-c4ncc[nH]4)c21)C(=O)c1ccccc1-3", "values": [{"measurement": "IC16", "setting": "HeLa [2]", "result": "> 100", "unit": "µM"}, {"measurement": "IC50", "setting": "HeLa [2]", "result": "> 100", "unit": "µM"}, {"measurement": "IC16", "setting": "LS180", "result": "> 100", "unit": "µM"}, {"measurement": "IC50", "setting": "LS180", "result": "> 100", "unit": "µM"}, {"measurement": "IC16", "setting": "Jurkat", "result": 1.7, "unit": "µM"}, {"measurement": "IC50", "setting": "Jurkat", "result": 70.9, "unit": "µM"}, {"measurement": "IC16", "setting": "MCF7 [3]", "result": "> 100", "unit": "µM"}, {"measurement": "IC50", "setting": "MCF7 [3]", "result": "> 100", "unit": "µM"}]}
{"smiles": "CC[C@]1(O)C[C@@H]2CN(CCc3c([nH]c4ccccc34)[C@@](C(=O)OC)(c3cc4c(cc3OC)N(C)[C@H]3[C@@](O)(C(=O)OC)[C@H](OC(C)=O)[C@]5(CC)C=CCN6CC[C@]43[C@@H]65)C2)C1", "note": "[VINBLASTINE]", "values": [{"measurement": "ILS at 5 mg/kg", "setting": "P388 [4]", "result": 83, "unit": "%"}]}
{"smiles": "CC1CC(=O)C2=C(C1)NC1=C(C(=O)c3ccccc31)C2c1ncc([N+](=O)[O-])n1C", "note": "(stereo unspecified)", "values": [{"measurement": "IC16", "setting": "HeLa [2]", "result": 9.2, "unit": "µM"}, {"measurement": "IC50", "setting": "HeLa [2]", "result": "> 25", "unit": "µM"}, {"measurement": "IC16", "setting": "LS180", "result": 12.5, "unit": "µM"}, {"measurement": "IC50", "setting": "LS180", "result": "> 25", "unit": "µM"}, {"measurement": "IC16", "setting": "Jurkat", "result": 0.7, "unit": "µM"}, {"measurement": "IC50", "setting": "Jurkat", "result": "> 25", "unit": "µM"}, {"measurement": "IC16", "setting": "MCF7 [3]", "result": "> 25", "unit": "µM"}, {"measurement": "IC50", "setting": "MCF7 [3]", "result": "> 25", "unit": "µM"}]}
{"smiles": "CS(=O)(=O)c1nc2cc(Cl)c(Cl)cc2n1C1CCCC1", "values": [{"measurement": "IC50", "setting": "MCF7 [5]", "result": 600, "unit": "nM"}, {"measurement": "IC50", "setting": "HCT-116", "result": 600, "unit": "nM"}]}
{"smiles": "C[C@H](O)CNc1nccc(-n2ccnc2-c2cccc(NC(=O)Nc3ccc(Cl)c(Cl)c3)c2)n1", "values": [{"measurement": "GI50", "setting": "[1]", "result": 650, "unit": "nM"}]}
{"smiles": "C[S+]([O-])c1nc2cc(Cl)c(Cl)cc2n1C1CCCC1", "note": "(stereo unspecified)", "values": [{"measurement": "IC50", "setting": "MCF7 [5]", "result": 500, "unit": "nM"}, {"measurement": "IC50", "setting": "HCT-116", "result": 500, "unit": "nM"}]}
{"smiles": "Cc1nc2cc(Cl)c(Cl)cc2n1C1CCCC1", "values": [{"measurement": "IC50", "setting": "MCF7 [5]", "result": 40000, "unit": "nM"}, {"measurement": "IC50", "setting": "HCT-116", "result": 3000, "unit": "nM"}]}
{"smiles": "COC(=O)C(C)(C)C(c1ccc(Nc2ccc3ccccc3c2)cc1)n1ccnc1", "note": "(stereo unspecified)", "values": [{"measurement": "IC50", "setting": "Cytochrome P450 26A1", "result": 30, "unit": "nM"}]}
{"smiles": "COc1ccc(-c2sc3nc(-c4ccc(F)cc4)c(C(=O)c4cccnc4)n3c2-c2ccc(OC)cc2)cc1", "values": [{"measurement": "IC50", "setting": "A549", "result": 640, "unit": "nM"}]}
{"smiles": "COc1ccc(Cc2[nH]c(=N)n(C)c2Cc2ccc(O)cc2)cc1", "note": "[NAAMINE A]", "values": [{"measurement": "inhibition in vivo at 25 mg/kg", "setting": "A-431", "result": 85, "unit": "%"}]}
{"smiles": "Nc1nc(-c2cccs2)cn1-c1nc(-c2ccccc2)cs1", "values": [{"measurement": "IC50", "setting": "NUGC-3", "result": 50, "unit": "nM"}, {"measurement": "ILS at 200 mg/kg/day", "setting": "P388 [6]", "result": 75, "unit": "%"}]}
{"smiles": "CCCCCCCn1c(CCCC)nc(Cl)c1-c1nc2ccccc2[nH]1", "values": [{"measurement": "IC50", "setting": "HeLa [7]", "result": 25.3, "unit": "µM"}]}
{"smiles": "CCCCc1nc(Cl)c(-c2nc3ccccc3[nH]2)n1Cc1cccc(C)c1", "values": [{"measurement": "IC50", "setting": "HeLa [7]", "result": 30.2, "unit": "µM"}]}
{"smiles": "CC1CC(=O)C2=C(C1)N(c1ccccc1)C1=C(C(=O)c3ccccc31)C2c1nc(Cl)c(Cl)[nH]1", "note": "(stereo unspecified)", "values": [{"measurement": "IC16", "setting": "HeLa [2]", "result": 10.7, "unit": "µM"}, {"measurement": "IC50", "setting": "HeLa [2]", "result": 59, "unit": "µM"}, {"measurement": "IC16", "setting": "LS180", "result": 19.4, "unit": "µM"}, {"measurement": "IC50", "setting": "LS180", "result": "> 100", "unit": "µM"}, {"measurement": "IC16", "setting": "Jurkat", "result": 1.7, "unit": "µM"}, {"measurement": "IC50", "setting": "Jurkat", "result": 95.8, "unit": "µM"}, {"measurement": "IC16", "setting": "MCF7 [3]", "result": 13.6, "unit": "µM"}, {"measurement": "IC50", "setting": "MCF7 [3]", "result": 77.1, "unit": "µM"}]}
